In the C3SDB collision cross section collection:
Several values for one entry are separate records, joined by “and”; a condition that tells them apart may be missing. Equal values may be shown once.

What was measured:
[1] = instrument: DT, single field, calibrated with ESI Low Concentration Tuning Mix (Agilent)
[2] = instrument: TW, calibrated with polyalanine and drug standards

collision cross section (N2) ([1]; [M-H]-) | collision cross section (N2) ([2]; [M+H]+) [Å²] | Structure (SMILES) | other results
131.7 Å² |  | O=C(O)[C@H]1OC(O)[C@H](O)[C@@H](O)[C@@H]1O (some centres not stated) [GLUCURONATE] | collision cross section (N2) ([1]; [M+Na]+): 150.2 Å²
 |  | O=C(O)CCCCCCCCC(=O)O [SEBACATE] | collision cross section (N2) ([1]; [M+Na-2H]-): 146 Å²; collision cross section (N2) ([1]; [M+Na]+): 152.7 Å²
202.3 Å² and 207.2 Å² |  | Nc1ncnc2c1ncn2C1OC(COP(=O)(O)OP(=O)(O)OCC2OC(O)C(O)C2O)C(O)C1O (configuration not stated) [ADENOSINE DIPHOSPHATE RIBOSE] | collision cross section (N2) ([1]; [M+H2O-H]-): 204.5 Å²; collision cross section (N2) ([1]; [M+H]+): 212.4 Å²; collision cross section (N2) ([1]; [M+Na-2H]-): 211.5 Å²; collision cross section (N2) ([1]; [M+Na]+): 217.5 Å²
223.8 Å² |  | NC(=O)c1ccc[n+]([C@@H]2O[C@H](COP(=O)([O-])OP(=O)(O)OC[C@H]3O[C@@H](n4cnc5c(N)ncnc54)[C@H](O)[C@@H]3O)[C@@H](O)[C@H]2O)c1 [BETA-NICOTINAMIDE ADENINE DINUCLEOTIDE] | collision cross section (N2) ([1]; [M+H]+): 227.5 Å²; collision cross section (N2) ([1]; [M+Na-2H]-): 230.8 Å²; collision cross section (N2) ([1]; [M+Na]+): 222.7 Å²
 |  | C[n+]1cccc(C(N)=O)c1 [1-METHYLNICOTINAMIDE] | collision cross section (N2) ([1]; [M+]+): 126.2 Å²
158.3 Å² |  | CC(=O)NC(Cc1c[nH]c2ccccc12)C(=O)O (configuration not stated) [N-ACETYLTRYPTOPHAN] | collision cross section (N2) ([1]; [M+H]+): 153.8 Å²; collision cross section (N2) ([1]; [M+Na]+): 158.5 Å²
124 Å² |  | CN[C@H](CC(=O)O)C(=O)O [N-METHYLASPARTATE] | collision cross section (N2) ([1]; [M+H]+): 130 Å²; collision cross section (N2) ([1]; [M+Na]+): 134.7 Å²
119.3 Å² |  | C[C@H](O)[C@H](N)C(=O)O [ALLOTHREONINE] | 
 |  | OCC1(O)OC[C@@H](O)[C@@H](O)[C@@H]1O (some centres not stated) [FRUCTOSE] | collision cross section (N2) ([1]; [M+Na]+): 141.5 Å²
128.6 Å² |  | O=C(O)Cc1ccc(O)cc1 [P-HYDROXYPHENYLACETATE] | 
132.4 Å² |  | O=C(O)Cc1cc(O)ccc1O [HOMOGENTISATE] | 
137.6 Å² |  | O=C(O)C(=O)Cc1c[nH]c2ccccc12 [INDOLE-3-PYRUVATE] | 
122.5 Å² |  | O=C(O)c1ccc([O-])c(O)c1 [3,4-DIHYDROXYBENZOATE] | 
 |  | Cc1ncc(C[n+]2csc(CCOP(=O)(O)O)c2C)c(N)n1 [THIAMINE MONOPHOSPHATE] | collision cross section (N2) ([1]; [M+H]+): 171 Å²; collision cross section (N2) ([1]; [M+Na-2H]-): 174.3 Å² and 180.2 Å²; collision cross section (N2) ([1]; [M+Na]+): 176.9 Å²
172.9 Å² |  | CCCCCCCCCCCCCCCCC(=O)[O-] [HEPTADECANOATE] | 
114.5 Å² |  | Oc1ccccc1O [PYROCATECHOL] | 
141.1 Å² |  | COC(=O)Cc1c[nH]c2ccccc12 [INDOLE-3-METHYL ACETATE] | collision cross section (N2) ([1]; [M+H]+): 138.7 Å²; collision cross section (N2) ([1]; [M+Na]+): 147.2 Å²
145 Å² |  | CC(=O)NC(CCCCN)C(=O)O (stereo not drawn) [N-ALPHA-ACETYLLYSINE] | collision cross section (N2) ([1]; [M+H]+): 145.5 Å²; collision cross section (N2) ([1]; [M+Na]+): 144.4 Å²
123 Å² |  | NC(CS(=O)(=O)O)C(=O)O (configuration not stated) [CYSTEATE] | collision cross section (N2) ([1]; [M+H]+): 140.2 Å²; collision cross section (N2) ([1]; [M+Na-2H]-): 131.4 Å²; collision cross section (N2) ([1]; [M+Na]+): 148.2 Å²

collision cross section (N2) ([1]; [M-H]-) | collision cross section (N2) ([2]; [M+H]+) [Å²] | Structure (SMILES) | other results
112.6 Å² |  | O=C(O)[C@H](O)CO [GLYCERATE] | 
217.5 Å² |  | Nc1ncnc2c1ncn2[C@@H]1O[C@H](COP(=O)(O)OP(=O)(O)O[C@H]2O[C@H](CO)[C@@H](O)[C@H](O)[C@H]2O)[C@@H](O)[C@H]1O [ADP-GLUCOSE] | collision cross section (N2) ([1]; [M+H]+): 216.1 Å²; collision cross section (N2) ([1]; [M+Na-2H]-): 218.4 Å²; collision cross section (N2) ([1]; [M+Na]+): 224.9 Å²
117.2 Å² |  | CC[C@H](O)C(=O)O [2-HYDROXYBUTYRATE] | 
130.7 Å² |  | O=CCc1c[nH]c2ccccc12 [INDOLEACETALDEHYDE] | collision cross section (N2) ([1]; [M+H]+): 132.3 Å²
118.2 Å² |  | C/C(=C/C(=O)O)C(=O)O [2-METHYLMALEATE] | 
146.2 Å² |  | O=P(O)(O)OC[C@H]1OC(O)[C@@H](O)[C@@H](O)[C@@H]1O (some centres not stated) [MANNOSE 6-PHOSPHATE] | collision cross section (N2) ([1]; [M+Na-2H]-): 156.7 Å²; collision cross section (N2) ([1]; [M+Na]+): 156.1 Å²
 |  | CC(=O)N[C@@H]1C(O)O[C@H](CO)[C@@H](O)[C@@H]1O (some centres not stated) [N-ACETYLMANNOSAMINE] | collision cross section (N2) ([1]; [M+Na]+): 150.2 Å²
 |  | Nc1nc(=O)c2[nH]cnc2[nH]1 [GUANINE] | collision cross section (N2) ([1]; [M+K]+): 136 Å²; collision cross section (N2) ([1]; [M+Na]+): 137.8 Å²
 |  | C[C@H](CCC(=O)O)[C@H]1CC[C@H]2[C@@H]3CC[C@@H]4C[C@H](O)CC[C@]4(C)[C@H]3C[C@H](O)[C@]12C [DEOXYCHOLIC ACID] | collision cross section (N2) ([2]; [M+Na]+): 196.7 Å²
 | 175.2 | COc1cc(OC)c(-c2c(OC)cc(OC)cc2OC)c(OC)c1 [DIFUCOL HEXAMETHYL ETHER] | 
 | 160.6 | O=C1CC(c2ccc(O)cc2)Oc2cc(O)cc(O)c21 (configuration not stated) [NARINGENIN] | 
 | 134.7 | CC(C)CCCC(C)N (configuration not stated) [OCTODRINE] | 
 | 179 | OC[C@H]1O[C@@H](n2cnc3c(NCc4ccco4)ncnc32)[C@H](O)[C@@H]1O [KINETIN RIBOSIDE] | 
 | 176.5 | O=C(C1CCCCC1)N1CC(=O)N2CCc3ccccc3C2C1 (configuration not stated) [PRAZIQUANTEL] | 
 | 210.3 | C[C@]12C=CC(=O)C=C1CC[C@@H]1[C@@H]2[C@@H](O)C[C@@]2(C)[C@H]1CC[C@]2(O)C(=O)COC(=O)CCC(=O)O [PREDNISOLONE HEMISUCCINATE] | 
 | 130.6 | CC(=O)Nc1cccc(O)c1 [METACETAMOL] | 
 | 159 | CC(C)NCC(O)COc1ccc(CC(N)=O)cc1 (configuration not stated) [ATENOLOL] | 
 | 201.4 | CC(C)=CCc1c2c(c3occ(-c4ccc(O)cc4)c(=O)c3c1O)C=CC(C)(C)O2 [OSAJIN] | 
 | 205.9 | COc1ccc(Cl)cc1C(=O)NCCc1ccc(S(=O)(=O)NC(=O)NC2CCCCC2)cc1 [GLYBURIDE] | 

collision cross section (N2) ([1]; [M-H]-) | collision cross section (N2) ([2]; [M+H]+) [Å²] | Structure (SMILES) | other results
 | 149.1 | CC(O)Cn1cnc2c1c(=O)n(C)c(=O)n2C (configuration not stated) [PROXYPHYLLINE] | 
 | 148.9 | NC(N)=NC(=O)Cc1c(Cl)cccc1Cl [GUANFACINE] | 
 | 154.7 | CCN(CC)CCOC(=O)c1ccc(N)cc1 [PROCAINE] | 
 | 146.1 | CC12CCCC(O)(C1)C1CC(C)(C)C1CC2 (stereo not drawn) [beta-CARYOPHYLLENE ALCOHOL] | 
 | 129 | CC(=O)c1c(O)cc(O)cc1O [PHLORACETOPHENONE] | 
 | 178.6 | COC1=C(OC)C(=O)C(CCCCCCCCCCO)=C(C)C1=O [IDEBENONE] | 
 | 160.3 | CCOc1cccc(C(=O)c2ccc(O)c(O)c2O)c1 [3,4-DIDESMETHYL-5-DESHYDROXY-3'-ETHOXYSCLEROIN] | 
 | 161.4 | COc1ccc2oc(-c3ccccc3OC)cc(=O)c2c1 [6,2'-DIMETHOXYFLAVONE] | 
 | 170 | COc1ccc([C@H]2Oc3cc(OC)cc(OC)c3C[C@H]2O)cc1 [EPIAFZELECHIN TRIMETHYL ETHER] | 
 | 130.5 | COc1cc(O)c(C(C)=O)c(O)c1 [4-O-METHYLPHLORACETOPHENONE] | 
 | 209.5 | CC(=O)OCC(=O)[C@@]1(O)[C@H](OC(C)=O)C[C@H]2[C@@H]3CCC4=CC(=O)C=C[C@]4(C)[C@@]3(F)[C@@H](O)C[C@@]21C [TRIAMCINOLONE DIACETATE] | 
 | 177.3 | CC(C)(Oc1ccc(CCNC(=O)c2ccc(Cl)cc2)cc1)C(=O)O [BEZAFIBRATE] | 
 | 147.4 | Cc1cc2cc3c(C)cc(=O)oc3c(C)c2o1 [TRIOXSALEN] | 
 | 178.6 | CC(C)C1CCC(C(=O)N[C@H](Cc2ccccc2)C(=O)O)CC1 (some centres not stated) [NATEGLINIDE] | 
 | 189.1 | COc1ccccc1OCCNCC(O)COc1cccc2[nH]c3ccccc3c12 (configuration not stated) [CARVEDILOL] | 
 |  | COC(=O)CC[C@@H](C)[C@H]1CC[C@H]2[C@@H]3[C@H](O)C[C@@H]4C[C@H](O)CC[C@]4(C)[C@H]3C[C@H](O)[C@]12C [CHOLIC ACID, METHYL ESTER] | collision cross section (N2) ([2]; [M+Na]+): 198.1 Å²
 | 117.2 | Nc1nccs1 [AMINOTHIAZOLE] | 
 | 140.7 | CC(=O)Nc1nnc(S(N)(=O)=O)s1 [ACETAZOLAMIDE] | 
 | 144.1 | CC(C)(CO)[C@@H](O)C(=O)NCCCO [DEXPANTHENOL] | 

Structure (SMILES) | collision cross section (N2) ([1]; [M-H]-) | collision cross section (N2) ([2]; [M+H]+) [Å²] | other results
CC[C@H]1CN2CC[C@H]1C[C@@H]2[C@@H](O)c1ccnc2ccc(OC)cc12 [HYDROQUINIDINE] |  | 176.7 | 
O=[N+]([O-])O[C@H]1CO[C@H]2[C@@H]1OC[C@H]2O[N+](=O)[O-] [ISOSORBIDE DINITRATE] |  | 151.6 | 
CC(=O)O[C@H]1C[C@@H](OC(C)=O)C(C)(C)C2CC(=O)[C@]3(C)C(CC[C@@]4(C)[C@H](c5ccoc5)OC(=O)[C@H]5O[C@]543)[C@]21C (some centres not stated) [7-DEACETOXY-7-OXOKHIVORIN] |  | 217.7 | 
CC(C)c1c(CN(C)C(C)Cc2ccccc2)n(C)n(-c2ccccc2)c1=O (configuration not stated) [FAMPROFAZONE] |  | 190.9 | 
Cc1nccc2c1[nH]c1ccccc12 [HARMANE] |  | 136.6 | 
N[C@@H](Cc1ccc(N(CCCl)CCCl)cc1)C(=O)O [MELPHALAN] |  | 168.7 | 
